# Reference: paper PMC4201327 (Organic letters, 2014)
# Target: Egt1 (Neurospora crassa, UniProt Q7RX33)
# Assay: oxygen consumption, NeoFox oxygen electrode
# Assay type: biochemical
# Chain of Egt1 (Q7RX33 whole entry): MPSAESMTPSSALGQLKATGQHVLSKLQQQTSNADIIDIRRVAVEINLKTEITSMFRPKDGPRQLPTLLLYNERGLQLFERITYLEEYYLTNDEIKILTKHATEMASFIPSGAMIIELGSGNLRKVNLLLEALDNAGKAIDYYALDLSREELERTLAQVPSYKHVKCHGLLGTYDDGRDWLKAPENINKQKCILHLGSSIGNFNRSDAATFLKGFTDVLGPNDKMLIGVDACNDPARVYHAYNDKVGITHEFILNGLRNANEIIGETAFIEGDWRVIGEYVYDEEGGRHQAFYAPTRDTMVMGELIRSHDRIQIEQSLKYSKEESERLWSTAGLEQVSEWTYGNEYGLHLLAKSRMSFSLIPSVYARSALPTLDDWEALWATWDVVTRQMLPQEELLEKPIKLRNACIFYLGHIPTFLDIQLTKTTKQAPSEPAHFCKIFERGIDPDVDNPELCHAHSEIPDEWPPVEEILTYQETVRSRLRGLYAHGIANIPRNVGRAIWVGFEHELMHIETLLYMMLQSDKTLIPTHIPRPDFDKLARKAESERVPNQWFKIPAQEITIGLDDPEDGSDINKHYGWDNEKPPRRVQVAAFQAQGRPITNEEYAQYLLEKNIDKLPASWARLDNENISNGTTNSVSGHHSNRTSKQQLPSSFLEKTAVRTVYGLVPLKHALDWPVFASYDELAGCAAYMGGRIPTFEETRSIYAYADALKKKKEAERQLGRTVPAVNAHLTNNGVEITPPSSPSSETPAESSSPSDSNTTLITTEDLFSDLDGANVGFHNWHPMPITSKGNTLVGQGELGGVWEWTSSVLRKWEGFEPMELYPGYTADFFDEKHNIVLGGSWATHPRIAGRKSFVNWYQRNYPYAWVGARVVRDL
row,Km [mM],Structure (SMILES)
1,0.436 ± 0.03,"C[N+](C)(C)[C@@H](Cc1cnc[nH]1)C(=O)[O-] [compound 2, hercynine]"
2,7.68 ± 1.11,N[C@@H](CCC(=O)N[C@@H](CS)C(=O)O)C(=O)O [γ-Glu-Cys]
